System: human patients suffering from osteoarthritis
Assay: Clinical study in osteoarthritis patients: patient-recorded adverse side effects
Type: in vivo
Settings: 4 weeks
Excerpt: Four groups of patients were selected and each group was given one or other of the following medications over a four week period:
All patients were aged from 45-80 and had been suffering from chronic knee pain due to osteoarthritis for at least 6 months. Patients went through a washout period of their existing osteoarthritis treatments. […] At the beginning of the study, and also at conclusion of each subsequent week, patients were required to visit a physician and complete a WOMAC questionnaire and a Global Pain Rating Assessment.
In terms of adverse side effects patients were asked to keep a record of these, if any.

`CC(C)Cc1ccc(C(C)C(=O)O)cc1` (centres unmarked) [Ibuprofen, ibuprofen] was tested. Which “adverse side effects recorded” value (Ibuprofen High group: 2 × 300 mg ibuprofen tablets four times daily, 2,400 mg per day, both related to gastric discomfort) did it give?
Its value is “two probable adverse effects”.

And the “adverse side effects recorded” value (Ibuprofen Low group: 2 × 150 mg ibuprofen tablets four times daily, 1,200 mg per day)?
Its value is “no confirmed or probable adverse side effects”.

Reference: patent publication US20110166234A1, “MEDICINAL PRODUCT AND TREATMENT” (priority 2008, published 2011)
